Measurements as given in ChEMBL document CHEMBL1201862, “PubChem BioAssay data set” (2004).
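Protocol summary: plate cells (96-well), add compound at 5 concentrations, incubate 48 h, interpolate endpoints linearly. At the GI50, growth is halved.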 Activity calls are given as the source filed them. No stated cut-off is given here; in the data, active = GI50 up to about 1.1 µM and inactive = higher.

Legend:
Assay in all cases: DTP human tumour cell line panel, 48 h
CCRF-CEM = tested on: CCRF-CEM
SW-620 = tested on: SW-620
UO-31 = tested on: UO-31
HCT-116 = tested on: HCT-116
U-251 = tested on: U-251
MDA-MB-231 = tested on: MDA-MB-231
SR = tested on: SR
OVCAR-4 = tested on: OVCAR-4
SK-OV-3 = tested on: SK-OV-3
M14 = tested on: M14
A498 = tested on: A498
CAKI-1 = tested on: CAKI-1
SF-268 = tested on: SF-268
SNB-75 = tested on: SNB-75
786-0 = tested on: 786-0
HOP-92 = tested on: HOP-92
ACHN = tested on: ACHN
EKVX = tested on: EKVX
NCI-H226 = tested on: NCI-H226
HL-60 = tested on: HL-60

SMILES | GI50 (CCRF-CEM) | GI50 (SW-620) | GI50 (UO-31) | GI50 (HCT-116) | GI50 (U-251) | GI50 (MDA-MB-231) | GI50 (SR) | GI50 (OVCAR-4) | GI50 (SK-OV-3) | GI50 (M14) | GI50 (A498) | GI50 (CAKI-1) | GI50 (SF-268) | GI50 (SNB-75) | GI50 (786-0) | GI50 (HOP-92) | GI50 (ACHN) | GI50 (EKVX) | GI50 (NCI-H226) | GI50 (HL-60)
CCOC(=O)c1c(N2CCCC2)[nH]c(=O)c(C(c2cccs2)c2c(O)c(C(=O)OCC)c(N3CCCC3)[nH]c2=O)c1O | 78.2 µM (inactive) | > 100 µM (inactive) | > 100 µM (inactive) | > 100 µM (inactive) | > 100 µM (inactive) | > 100 µM (inactive) | > 100 µM (inactive) | > 100 µM (inactive) | > 100 µM (inactive) | > 100 µM (inactive) | > 100 µM (inactive) | > 100 µM (inactive) | > 100 µM (inactive) | > 100 µM (inactive) | > 100 µM (inactive) | > 100 µM (inactive) | > 100 µM (inactive) | > 100 µM (inactive) | > 100 µM (inactive) | –
N#Cc1ccsc1Nc1ccccc1[N+](=O)[O-] | > 100 µM (inactive) | > 100 µM (inactive) | > 100 µM (inactive) | > 100 µM (inactive) | 72.9 µM (inactive) | 31.3 µM (inactive) | > 100 µM (inactive) | > 100 µM (inactive) | > 100 µM (inactive) | > 100 µM (inactive) | > 100 µM (inactive) | > 100 µM (inactive) | 47 µM (inactive) | > 100 µM (inactive) | > 100 µM (inactive) | 68.7 µM (inactive) | > 100 µM (inactive) | 36.6 µM (inactive) | > 100 µM (inactive) | –
COc1ccc(N2C(=O)C3c4[nH]c5c(C)cccc5c4C4CCC(C(C)C)CC4C3C2=O)cc1 (configuration not stated) | – | 11 µM (inactive) | 11.8 µM (inactive) | 9.73 µM (inactive) | 10 µM (inactive) | 5.96 µM (inactive) | 4.68 µM (inactive) | 14 µM (inactive) | 16.4 µM (inactive) | 9.53 µM (inactive) | 14 µM (inactive) | 15 µM (inactive) | 6.01 µM (inactive) | 4.06 µM (inactive) | 4.38 µM (inactive) | 12.1 µM (inactive) | 13.7 µM (inactive) | 16.7 µM (inactive) | 13.9 µM (inactive) | –
N=C1/C(=C/c2ccc(F)cc2)C(=O)N=C2SC=NN12 | > 100 µM (inactive) | > 100 µM (inactive) | > 100 µM (inactive) | > 100 µM (inactive) | > 100 µM (inactive) | > 100 µM (inactive) | 92.3 µM (inactive) | > 100 µM (inactive) | > 100 µM (inactive) | > 100 µM (inactive) | – | > 100 µM (inactive) | > 100 µM (inactive) | 92.3 µM (inactive) | > 100 µM (inactive) | 69.2 µM (inactive) | > 100 µM (inactive) | > 100 µM (inactive) | > 100 µM (inactive) | 80.5 µM (inactive)
C=COC(=O)N1C2CCCC(Cl)(C(C)=O)C1CC2 (configuration not stated) | 13.4 µM (inactive) | > 100 µM (inactive) | > 100 µM (inactive) | > 100 µM (inactive) | > 100 µM (inactive) | > 100 µM (inactive) | > 100 µM (inactive) | > 100 µM (inactive) | > 100 µM (inactive) | > 100 µM (inactive) | > 100 µM (inactive) | > 100 µM (inactive) | 66.1 µM (inactive) | 28.2 µM (inactive) | > 100 µM (inactive) | > 100 µM (inactive) | > 100 µM (inactive) | > 100 µM (inactive) | > 100 µM (inactive) | –
CCC(CC)C(=O)OC[n+]1ccc(-c2c(COC(=O)NC(C)C)c(COC(=O)NC(C)C)c3n2CCC3)cc1 | > 100 µM (inactive) | > 100 µM (inactive) | > 100 µM (inactive) | – | > 100 µM (inactive) | > 100 µM (inactive) | 36.7 µM (inactive) | > 100 µM (inactive) | > 100 µM (inactive) | > 100 µM (inactive) | > 100 µM (inactive) | > 100 µM (inactive) | – | – | > 100 µM (inactive) | > 100 µM (inactive) | – | > 100 µM (inactive) | > 100 µM (inactive) | > 100 µM (inactive)
O=C1CCCSC(=O)N1Cc1ccccc1 | > 100 µM (inactive) | > 100 µM (inactive) | – | > 100 µM (inactive) | – | > 100 µM (inactive) | > 100 µM (inactive) | > 100 µM (inactive) | > 100 µM (inactive) | > 100 µM (inactive) | > 100 µM (inactive) | > 100 µM (inactive) | > 100 µM (inactive) | 0.0515 µM (active) | > 100 µM (inactive) | > 100 µM (inactive) | > 100 µM (inactive) | > 100 µM (inactive) | > 100 µM (inactive) | > 100 µM (inactive)
C/C(Cl)=N\OC(=O)Nc1ccccc1C(F)(F)F | 21.1 µM (inactive) | 17.9 µM (inactive) | 64.9 µM (inactive) | 33.4 µM (inactive) | > 100 µM (inactive) | 22.6 µM (inactive) | 17.1 µM (inactive) | 13.8 µM (inactive) | > 100 µM (inactive) | – | > 100 µM (inactive) | > 100 µM (inactive) | > 100 µM (inactive) | 20.9 µM (inactive) | 17.9 µM (inactive) | 6.61 µM (inactive) | 18.1 µM (inactive) | 19.9 µM (inactive) | – | 3.5 µM (inactive)
O=C1c2cc3c(cc2CC12Cc1cc4c(cc1C2)CCC4)CCC3 | > 100 µM (inactive) | > 100 µM (inactive) | > 100 µM (inactive) | > 100 µM (inactive) | > 100 µM (inactive) | > 100 µM (inactive) | > 100 µM (inactive) | > 100 µM (inactive) | > 100 µM (inactive) | > 100 µM (inactive) | > 100 µM (inactive) | > 100 µM (inactive) | > 100 µM (inactive) | > 100 µM (inactive) | > 100 µM (inactive) | > 100 µM (inactive) | > 100 µM (inactive) | > 100 µM (inactive) | – | 59.6 µM (inactive)
CC(=O)O/N=C/c1c2ccccc2cc2ccccc12 | > 100 µM (inactive) | 50.8 µM (inactive) | 36.2 µM (inactive) | 41.6 µM (inactive) | 45.6 µM (inactive) | 20.9 µM (inactive) | 28 µM (inactive) | – | 22.2 µM (inactive) | > 100 µM (inactive) | 24.9 µM (inactive) | 82.4 µM (inactive) | 61.1 µM (inactive) | 22.1 µM (inactive) | – | > 100 µM (inactive) | 23.8 µM (inactive) | 27.5 µM (inactive) | 46.9 µM (inactive) | > 100 µM (inactive)
CSc1nc(NCc2ccccc2)c2cnn(COCCO)c2n1 | 51.6 µM (inactive) | > 100 µM (inactive) | 35.9 µM (inactive) | 62.8 µM (inactive) | 44.5 µM (inactive) | 55.6 µM (inactive) | 69.7 µM (inactive) | 29.4 µM (inactive) | > 100 µM (inactive) | 67.8 µM (inactive) | – | 61.9 µM (inactive) | 43.8 µM (inactive) | 0.152 µM (active) | > 100 µM (inactive) | 18.2 µM (inactive) | 31.9 µM (inactive) | 21.4 µM (inactive) | 55.5 µM (inactive) | 42.7 µM (inactive)
Cc1cc2nc3ccccc3n2c2nc(N)ccc12 | 38.5 µM (inactive) | 25.4 µM (inactive) | 16.3 µM (inactive) | 14.8 µM (inactive) | – | 58.2 µM (inactive) | 13.5 µM (inactive) | 44.9 µM (inactive) | – | 48 µM (inactive) | 46.1 µM (inactive) | 20.9 µM (inactive) | 37.1 µM (inactive) | > 100 µM (inactive) | 16.7 µM (inactive) | 16.6 µM (inactive) | 15.4 µM (inactive) | 53 µM (inactive) | 27.2 µM (inactive) | 17.6 µM (inactive)
C=C(Br)C(C)(Cl)CCC(Br)C(C)(C)Cl (configuration not stated) | 20.6 µM (inactive) | 36.1 µM (inactive) | > 100 µM (inactive) | 34.9 µM (inactive) | > 100 µM (inactive) | 42.3 µM (inactive) | > 100 µM (inactive) | 47.8 µM (inactive) | > 100 µM (inactive) | 32.9 µM (inactive) | > 100 µM (inactive) | > 100 µM (inactive) | 63.8 µM (inactive) | – | 20.6 µM (inactive) | 35.1 µM (inactive) | 29.6 µM (inactive) | > 100 µM (inactive) | 25.6 µM (inactive) | 20.3 µM (inactive)
O=C(O)CSC(CC1(c2ccc(Cl)cc2)NC(=O)CS1)c1ccc(Cl)cc1 (configuration not stated) | 69.3 µM (inactive) | > 100 µM (inactive) | > 100 µM (inactive) | > 100 µM (inactive) | 89.7 µM (inactive) | > 100 µM (inactive) | > 100 µM (inactive) | > 100 µM (inactive) | > 100 µM (inactive) | > 100 µM (inactive) | > 100 µM (inactive) | > 100 µM (inactive) | > 100 µM (inactive) | > 100 µM (inactive) | > 100 µM (inactive) | 22.8 µM (inactive) | > 100 µM (inactive) | > 100 µM (inactive) | – | > 100 µM (inactive)
O=S(=O)(O)Nc1ccc(-c2nc3ccccc3s2)cc1Cl | > 100 µM (inactive) | > 100 µM (inactive) | > 100 µM (inactive) | > 100 µM (inactive) | > 100 µM (inactive) | > 100 µM (inactive) | > 100 µM (inactive) | > 100 µM (inactive) | > 100 µM (inactive) | > 100 µM (inactive) | > 100 µM (inactive) | > 100 µM (inactive) | – | > 100 µM (inactive) | > 100 µM (inactive) | > 100 µM (inactive) | > 100 µM (inactive) | > 100 µM (inactive) | 14.6 µM (inactive) | > 100 µM (inactive)
